# Measured values: PubChem BioAssay AID1996
# Conditions: buffer; pH 7.4; 200.0 µM
row,SMILES,solubility kinetic [mg/mL]
1,O=C(Nc1ccc2c(c1)OCCO2)c1ccccc1,> 0.0383
2,Cc1cc(C)c2c3c(sc2n1)C(=O)N(c1ccccc1C)CC(=O)N3,0.0255
3,CCc1ccc(/C=C2/SC(N3CCOCC3)=NC2=O)cc1,0.0265
4,COc1ccc(CSc2ncnc3sccc23)cc1F,< 0.0003
5,CC(C)CCn1cnc2c1c(=O)[nH]c(=O)n2Cc1ccccc1,0.0298
6,CC(=O)CC(C)(C)Nc1nc2ccc([N+](=O)[O-])cc2o1,> 0.0416
7,CCN(CC)S(=O)(=O)c1cc(NC(=S)NC(=O)C2CCCC2)ccc1C,0.0061
8,N#Cc1cccc(NC(=O)c2cncn2-c2ccccc2)c1,0.0418
9,CCC(CO)Nc1ncnc2onc(-c3ccc(F)cc3)c12 (stereo not drawn),> 0.0453
10,Br.Fc1cc(Cl)ccc1NC1=NCCCCC1,> 0.0482
11,CC(=O)Nc1ccc(C(=O)NCC(=O)OCc2ccccc2F)cc1,0.0075
12,O=C(CN1C(=O)NC2(CCCCCCC2)C1=O)Nc1c(Cl)cccc1Cl,0.0074
13,O=c1c2ccccc2nc2n1C(CSc1ccccc1)CS2 (stereo not drawn),> 0.049
14,CCOC(=O)c1ccc(NC(=O)C2CC(O)CN2S(=O)(=O)c2ccc(C)cc2)cc1 (stereo not drawn),> 0.0649
15,COc1ccccc1OCC(=O)NC1CCCc2ccccc21 (stereo not drawn),0.0416
16,Cc1cc(C)c(NC(=O)C(C)N2CCCCCC2)c(C)c1.Cl (stereo not drawn),0.0366
17,CC1CN(C(=O)Nc2ccc(F)cc2F)CC(C)O1 (stereo not drawn),> 0.0405
18,CC1CC(C)(C)NC(=S)N1CCC(=O)NCc1ccc(F)cc1 (stereo not drawn),> 0.0506
19,FC(F)(F)c1ccc(-n2cnc3ccccc32)nc1,0.0135
20,CN1CCN(C(=O)NCC23CC4CC(CC(C4)C2)C3)CC1,> 0.0437
21,S=C(NCCc1ccccc1)Nc1cnc2ccccc2c1,0.0036

# The next lines start with the values.
row,solubility kinetic [mg/mL],SMILES
1,> 0.0476,Cc1ccc(C(=O)OCC(=O)NCc2ccc3c(c2)OCO3)o1
2,> 0.0496,CN(C)CCNC(=O)Cn1c(=O)c2cccn2c2ccc(F)cc21
3,0.0423,O=C(COC(=O)c1ccc2ccccc2n1)c1ccccc1
4,> 0.0487,Cc1cc(C)cc(C(=O)N2CCC3(CC2)NCCc2[nH]cnc23)c1
5,0.0032,Cc1ccc(C(=O)NC2CCCCCCC2)c(Cl)c1
6,> 0.0477,O=C(NC1CCS(=O)(=O)C1)c1cccc(Br)c1 (stereo not drawn)
7,0.0438,Cn1c(C(=O)N2CCN(c3ccccn3)CC2)cc2ccccc21
8,0.0312,N#Cc1cccc(C(=O)OCC(=O)NCc2ccco2)c1
9,> 0.0518,CC(C)N1CCN(Cc2cnc(-c3ccccc3)s2)CC1CCO (stereo not drawn)
10,< 0.0005,Oc1ccc2ccccc2c1C=Nc1ccccc1
11,0.0071,CCOc1ncccc1C(=O)OC(C)C(=O)Nc1ccc(CC)cc1 (stereo not drawn)
12,0.0369,CCCCC(=O)OCC(=O)c1[nH]c(C)c(C(C)=O)c1C
13,> 0.0488,OCCN(CC#CC(O)(c1ccccc1)c1ccccc1)CCO
14,0.0023,N#Cc1nc(-c2ccccc2F)oc1N1CCCCC1
15,0.0126,CN1CCN(c2ccc(CNS(=O)(=O)c3ccccc3)cc2)CC1
16,< 0.0007,CCOc1ccc(-n2c(C)c(C(C)=O)c3cc(O)ccc32)cc1
17,0.0015,COC(=O)c1cc2ccccc2n1Cc1ccc(Cl)nc1
18,0.0094,C=C(C)c1cccc(C(C)(C)NC(=O)Nc2cccnc2)c1
19,0.0604,CCOC(=O)c1ccccc1NC(=O)Cc1ccc(OC)c(S(=O)(=O)N2CCOCC2)c1
20,> 0.0529,COc1ccc(C)cc1NC(=O)C1CC(=O)N(CCc2ccccc2)C1 (stereo not drawn)
21,< 0.0001,c1ccc(CCN2CN=C(Nc3nc4ccccc4s3)NC2)cc1
22,> 0.0359,Nc1ncnc2nc(SCCC(=O)O)[nH]c12
23,0.0111,N#Cc1ccccc1NC(=O)COC(=O)c1ccc(F)cc1F
24,0.0491,Cc1ccccc1CSCC(=O)NCCSc1ccccn1
25,> 0.0345,CC(C)c1ncc(C(O)c2ccccc2)n1C (stereo not drawn)
26,> 0.0472,CC(=O)c1ccccc1OCCOc1ncnc2sccc12
27,0.0049,O=C(Cc1ccccc1)Nc1c(Cl)ccc2nsnc12
